Legend:
[1] = test system: third stage larvae of Haemonchus contortus; assay: Haemonchus contortus L3 (HcL3) Assay; type: cell-based; details: 96 h, read-out: HcL3 Minimum Effective Dose (MED)
[2] = test system: microfilariae of Dirofilaria immitis; assay: Dirofilaria immitis, Microfilaria (DiMF) In vitro Assay; type: cell-based; details: 72 h, read-out: DiMF Minimum Effective Dose (MED), approximately 72 hours incubation, microfilariae assessed for survival or paralysis

CC(C)C[C@H]1C(=O)O[C@H](Cc2ccc(Cn3cc(O)cn3)cc2)C(=O)N(C)[C@@H](CC(C)C)C(=O)O[C@H](C)C(=O)N(C)[C@@H](CC(C)C)C(=O)O[C@H](Cc2ccc(Cn3cc(O)cn3)cc2)C(=O)N(C)[C@@H](CC(C)C)C(=O)O[C@H](C)C(=O)N1C [Example 1b-18, (3S,6R,9S,12R,15S,18R,21S,24R)-6,18-bis(4-((4-hydroxy-1H-pyrazol-1-yl)methyl)benzyl)-3,9,15,21-tetraisobutyl-4,10,12,16,22,24-hexamethyl-1,7,13,19-tetraoxa-4,10,16,22-tetraazacyclotetracosan-2,5,8,11,14,17,20,23-octaone]
minimal effective concentration [1]: ≤ 1 µM

CC(C)C[C@H]1C(=O)O[C@H](Cc2ccc(Cn3ccc(-c4ccoc4)n3)cc2)C(=O)N(C)[C@@H](CC(C)C)C(=O)O[C@H](C)C(=O)N(C)[C@@H](CC(C)C)C(=O)O[C@H](Cc2ccc(Cn3ccc(-c4ccoc4)n3)cc2)C(=O)N(C)[C@@H](CC(C)C)C(=O)O[C@H](C)C(=O)N1C [Example 1b-111, (3S,6R,9S,12R,15S,18R,21S,24R)-6,18-bis(4-((3-(furan-3-yl)-1H-pyrazol-1-yl)methyl)benzyl)-3,9,15,21-tetraisobutyl-4,10,12,16,22,24-hexamethyl-1,7,13,19-tetraoxa-4,10,16,22-tetraazacyclotetracosan-2,5,8,11,14,17,20,23-octaone]
minimal effective concentration [2]: 0.01 to 0.1 µM

Cc1cn(Cc2ccc(C[C@H]3OC(=O)[C@H](CC(C)C)N(C)C(=O)[C@@H](C)OC(=O)[C@H](CC(C)C)N(C)C(=O)[C@@H](Cc4ccc(Cn5cnc(C)c5)cc4)OC(=O)[C@H](CC(C)C)N(C)C(=O)[C@@H](C)OC(=O)[C@H](CC(C)C)N(C)C3=O)cc2)cn1 [Example 6-14, (3S,6R,9S,12R,15S,18R,21S,24R)-3,9,15,21-tetraisobutyl-4,6,10,16,18,22-hexamethyl-12,24-bis(4-((4-methyl-1H-imidazol-1-yl)methyl)benzyl)-1,7,13,19-tetraoxa-4,10,16,22-tetraazacyclotetracosan-2,5,8,11,14,17,20,23-octaone]
minimal effective concentration [2]: 0.01 to 0.1 µM

COCc1nccn1Cc1ccc(C[C@H]2OC(=O)[C@H](CC(C)C)N(C)C(=O)[C@@H](C)OC(=O)[C@H](CC(C)C)N(C)C(=O)[C@@H](Cc3ccc(Cn4ccnc4COC)cc3)OC(=O)[C@H](CC(C)C)N(C)C(=O)[C@@H](C)OC(=O)[C@H](CC(C)C)N(C)C2=O)cc1 [Example 6-19, (3S,6R,9S,12R,15S,18R,21S,24R)-3,9,15,21-tetraisobutyl-6,18-bis(4-((2-(methoxymethyl)-1H-imidazol-1-yl)methyl)benzyl)-4,10,12,16,22,24-hexamethyl-1,7,13,19-tetraoxa-4,10,16,22-tetraazacyclotetracosan-2,5,8,11,14,17,20,23-octaone]
minimal effective concentration [2]: 0.001 to 0.01 µM

CC(C)C[C@H]1C(=O)O[C@H](Cc2cccc(Cn3cc(O)cn3)c2)C(=O)N(C)[C@@H](CC(C)C)C(=O)O[C@H](C)C(=O)N(C)[C@@H](CC(C)C)C(=O)O[C@H](Cc2cccc(Cn3cc(O)cn3)c2)C(=O)N(C)[C@@H](CC(C)C)C(=O)O[C@H](C)C(=O)N1C [Example 4-17, (3S,6R,9S,12R,15S,18R,21S,24R)-6,18-bis(3-((4-hydroxy-1H-pyrazol-1-yl)methyl)benzyl)-3,9,15,21-tetraisobutyl-4,10,12,16,22,24-hexamethyl-1,7,13,19-tetraoxa-4,10,16,22-tetraazacyclotetracosan-2,5,8,11,14,17,20,23-octaone]
minimal effective concentration [2]: 0.01 to 0.1 µM

CC(C)C[C@H]1C(=O)O[C@H](Cc2ccc(Cn3ccnc3-c3cncs3)cc2)C(=O)N(C)[C@@H](CC(C)C)C(=O)O[C@H](C)C(=O)N(C)[C@@H](CC(C)C)C(=O)O[C@H](Cc2ccc(Cn3ccnc3-c3cncs3)cc2)C(=O)N(C)[C@@H](CC(C)C)C(=O)O[C@H](C)C(=O)N1C [Example 6-18, (3S,6R,9S,12R,15S,18R,21S,24R)-3,9,15,21-tetraisobutyl-4,6,10,16,18,22-hexamethyl-12,24-bis(4-((2-(thiazol-5-yl)-1H-imidazol-1-yl)methyl)benzyl)-1,7,13,19-tetraoxa-4,10,16,22-tetraazacyclotetracosan-2,5,8,11,14,17,20,23-octaone]
minimal effective concentration [2]: 0.01 to 0.1 µM

CC(C)C[C@H]1C(=O)O[C@H](Cc2ccc(Cn3cc(CN)cn3)cc2)C(=O)N(C)[C@@H](CC(C)C)C(=O)O[C@H](C)C(=O)N(C)[C@@H](CC(C)C)C(=O)O[C@H](Cc2ccccc2)C(=O)N(C)[C@@H](CC(C)C)C(=O)O[C@H](C)C(=O)N1C [Example 2-59, (3S,6R,9S,12R,15S,18R,21S,24R)-6-(4-((4-(aminomethyl)-1H-pyrazol-1-yl)methyl)benzyl)-18-benzyl-3,9,15,21-tetraisobutyl-4,10,12,16,22,24-hexamethyl-1,7,13,19-tetraoxa-4,10,16,22-tetraazacyclotetracosan-2,5,8,11,14,17,20,23-octaone]
minimal effective concentration [2]: 0.01 to 0.1 µM

COc1ccc(OCc2cn(Cc3ccc(C[C@H]4OC(=O)[C@H](CC(C)C)N(C)C(=O)[C@@H](C)OC(=O)[C@H](CC(C)C)N(C)C(=O)[C@@H](Cc5ccccc5)OC(=O)[C@H](CC(C)C)N(C)C(=O)[C@@H](C)OC(=O)[C@H](CC(C)C)N(C)C4=O)cc3)nn2)cc1 [Example 10-22, (3S,6R,9S,12R,15S,18R,21S,24R)-6-benzyl-3,9,15,21-tetraisobutyl-18-(4-((4-((4-methoxyphenoxy)methyl)-1H-1,2,3-triazol-1-yl)methyl)benzyl)-4,10,12,16,22,24-hexamethyl-1,7,13,19-tetraoxa-4,10,16,22-tetraazacyclotetracosan-2,5,8,11,14,17,20,23-octaone]
minimal effective concentration [2]: 0.01 to 0.1 µM

CC(=O)c1cnn(Cc2ccc(C[C@H]3OC(=O)[C@H](CC(C)C)N(C)C(=O)[C@@H](C)OC(=O)[C@H](CC(C)C)N(C)C(=O)[C@@H](Cc4ccc(Cn5cc(C(C)=O)cn5)cc4)OC(=O)[C@H](CC(C)C)N(C)C(=O)[C@@H](C)OC(=O)[C@H](CC(C)C)N(C)C3=O)cc2)c1 [Example 1b-38, (3S,6R,9S,12R,15S,18R,21S,24R)-6,18-bis(4-((4-acetyl-1H-pyrazol-1-yl)methyl)benzyl)-3,9,15,21-tetraisobutyl-4,10,12,16,22,24-hexamethyl-1,7,13,19-tetraoxa-4,10,16,22-tetraazacyclotetracosan-2,5,8,11,14,17,20,23-octaone]
minimal effective concentration [2]: 0.01 to 0.1 µM

CC(C)C[C@H]1C(=O)O[C@H](Cc2ccc(Cn3nc(C4CC4)cc3C3CC3)cc2)C(=O)N(C)[C@@H](CC(C)C)C(=O)O[C@H](C)C(=O)N(C)[C@@H](CC(C)C)C(=O)O[C@H](Cc2ccc(Cn3nc(-c4ccco4)cc3CO)cc2)C(=O)N(C)[C@@H](CC(C)C)C(=O)O[C@H](C)C(=O)N1C [Example 1a-6, (3S,6R,9S,12R,15S,18R,21S,24R)-6-(4-((3,5-dicyclopropyl-1H-pyrazol-1-yl)methyl)benzyl)-18-(4-((3-(furan-2-yl)-5-(hydroxymethyl)-1H-pyrazol-1-yl)methyl)benzyl)-3,9,15,21-tetraisobutyl-4,10,12,16,22,24-hexamethyl-1,7,13,19-tetraoxa-4,10,16,22-tetraazacyclotetracosan-2,5,8,11,14,17,20,23-octaone]
minimal effective concentration [2]: 0.01 to 0.1 µM

CC(C)C[C@H]1C(=O)O[C@H](Cc2ccc(Cn3cc(C4CCOCC4)cn3)cc2)C(=O)N(C)[C@@H](CC(C)C)C(=O)O[C@H](C)C(=O)N(C)[C@@H](CC(C)C)C(=O)O[C@H](Cc2ccc(Cn3cc(C4CCOCC4)cn3)cc2)C(=O)N(C)[C@@H](CC(C)C)C(=O)O[C@H](C)C(=O)N1C [Example 1b-116, (3S,6R,9S,12R,15S,18R,21S,24R)-3,9,15,21-tetraisobutyl-4,6,10,16,18,22-hexamethyl-12,24-bis(4-((4-(tetrahydro-2H-pyran-4-yl)-1H-pyrazol-1-yl)methyl)benzyl)-1,7,13,19-tetraoxa-4,10,16,22-tetraazacyclotetracosan-2,5,8,11,14,17,20,23-octaone]
minimal effective concentration [2]: 0.01 to 0.1 µM

CC(C)C[C@H]1C(=O)O[C@H](Cc2ccc(Cn3c(=O)ccc4ccccc43)cc2)C(=O)N(C)[C@@H](CC(C)C)C(=O)O[C@H](C)C(=O)N(C)[C@@H](CC(C)C)C(=O)O[C@H](Cc2ccccc2)C(=O)N(C)[C@@H](CC(C)C)C(=O)O[C@H](C)C(=O)N1C [Example 10-12, (3S,6R,9S,12R,15S,18R,21S,24R)-6-benzyl-3,9,15,21-tetraisobutyl-4,10,12,16,22,24-hexamethyl-18-(4-((2-oxoquinolin-1 (2H)-yl)methyl)benzyl)-1,7,13,19-tetraoxa-4,10,16,22-tetraazacyclotetracosan-2,5,8,11,14,17,20,23-octaone]
minimal effective concentration [2]: 0.01 to 0.1 µM

CCOc1cnn(Cc2ccc(C[C@H]3OC(=O)[C@H](CC(C)C)N(C)C(=O)[C@@H](C)OC(=O)[C@H](CC(C)C)N(C)C(=O)[C@@H](Cc4ccc(CO)cc4)OC(=O)[C@H](CC(C)C)N(C)C(=O)[C@@H](C)OC(=O)[C@H](CC(C)C)N(C)C3=O)cc2)c1 [Example 2-39, (3S,6R,9S,12R,15S,18R,21S,24R)-6-(4-((4-ethoxy-1H-pyrazol-1-yl)methyl)benzyl)-18-(4-(hydroxymethyl)benzyl)-3,9,15,21-tetraisobutyl-4,10,12,16,22,24-hexamethyl-1,7,13,19-tetraoxa-4,10,16,22-tetraazacyclotetracosan-2,5,8,11,14,17,20,23-octaone]
minimal effective concentration [2]: 0.001 to 0.01 µM

CC(C)C[C@H]1C(=O)O[C@H](Cc2ccc(Cn3nc(C4CC4)cc3C3CC3)cc2)C(=O)N(C)[C@@H](CC(C)C)C(=O)O[C@H](C)C(=O)N(C)[C@@H](CC(C)C)C(=O)O[C@H](Cc2ccccc2)C(=O)N(C)[C@@H](CC(C)C)C(=O)O[C@H](C)C(=O)N1C [Example 2-32, (3S,6R,9S,12R,15S,18R,21S,24R)-6-benzyl-18-(4-((3,5-dicyclopropyl-1H-pyrazol-1-yl)methyl)benzyl)-3,9,15,21-tetraisobutyl-4,10,12,16,22,24-hexamethyl-1,7,13,19-tetraoxa-4,10,16,22-tetraazacyclotetracosan-2,5,8,11,14,17,20,23-octaone]
minimal effective concentration [2]: 0.01 to 0.1 µM

Reference: US11331369B2, “Endoparasitic depsipeptides” (Zoetis Services LLC, priority 2017, dated 2022)
